Values of other authors as cited in patent US9345733B1, “Supplement composition for supporting telomere maintenance and protection and method of use” (CELLHEALTH TECHNOLOGIES LTD., priority 2011, dated 2016).
Read-outs that look alike come from different tables or passages of the source. Values belong to the compound of their own block, whether it stands above or below them.

Columns and labels:
[1] = system: diseased endothelial cells; conditions: chronic exposure; via activation of hTERT and transient telomere stabilization
TNF-a [2] = conditions: hypertensive rats
alveolar macrophages = alveolar macrophages in idiopathic pulmonary fibrosis in vitro
[3] = system: endothelial progenitor cells; conditions: in culture
NF-κB and TNF-a = conditions: peripheral blood mononuclear cells of asthma patients, in-vitro
[4] = system: endothelial nitric oxide synthase; conditions: HUVEC, at nanomolar concentrations
[5] = system: vascular smooth muscle cells; conditions: stimulated by tumor necrosis factor-alpha
[6] = system: human arterial smooth muscle cells (HASMCs)
[7] = system: endothelial nitric oxide synthase; conditions: human aortic endothelial cells
[8] = system: endothelial progenitor cells
TNF-a [9] = target: TNF-a (Homo sapiens, UniProt P01375)
[10] = system: IL-23p19, IFN-y, TNF-a, IL-6, MCP-1; conditions: ileum of treated animals
[11] = system: chronic colonic inflammation; conditions: mice, dietary supplementation; reductions of TNF-a and IL-1β, increase of IL-10
[12] = system: human peripheral blood mononuclear cells; conditions: stimulated human peripheral blood mononuclear cells in vitro

Chain of TNF-a (Homo sapiens, UniProt P01375) (P01375 77-233 limits assumed, species assumed): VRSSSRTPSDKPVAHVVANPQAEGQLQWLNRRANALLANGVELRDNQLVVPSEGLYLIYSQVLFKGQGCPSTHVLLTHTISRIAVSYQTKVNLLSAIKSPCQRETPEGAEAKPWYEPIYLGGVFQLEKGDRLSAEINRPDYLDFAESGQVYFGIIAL

Structure (SMILES): CC(=O)N[C@@H](CS)C(=O)O [N-acetylcysteine]
- senescence of diseased endothelial cells [1]: can delay senescence
- deleterious effect of TNF-a on calcium transients and contraction (adult rat cardiomyocytes): prevents
- progression of cardiac injury (TNF-a [2]): hinders
- serum TNF-a level (TNF-a [2]): normalizes
- TNF-a, sTNFR, and TGF-beta1 release (alveolar macrophages): inhibits

Structure (SMILES): O=c1c(-c2ccc(O)cc2)coc2c([C@@H]3O[C@H](CO)[C@@H](O)[C@H](O)[C@H]3O)c(O)ccc12 [puerarin, Puerarin]
- onset of endothelial progenitor cells senescence [3]: dose dependently prevents
- proliferation of endothelial progenitor cells [3]: increases
- pathway of NF-κB and TNF-a (NF-κB and TNF-a): could inhibit

Structure (SMILES): CC(C)=CCC[C@](C)(O[C@@H]1O[C@H](CO)[C@@H](O)[C@H](O)[C@H]1O)[C@H]1CC[C@]2(C)[C@@H]1[C@H](O)C[C@@H]1[C@@]3(C)CC[C@H](O)C(C)(C)[C@@H]3[C@@H](O[C@@H]3O[C@H](CO)[C@@H](O)[C@H](O)[C@H]3O)C[C@]12C [ginsenoside Rg1]
- endothelial nitric oxide synthase phosphorylation via Akt [4]: induces
- proliferation of vascular smooth muscle cells [5]: inhibits
- TNF-a-induced HASMCs proliferation [6]: inhibits

Structure (SMILES): CC(C)=CCC[C@](C)(O[C@@H]1O[C@H](CO[C@@H]2O[C@H](CO)[C@@H](O)[C@H](O)[C@H]2O)[C@@H](O)[C@H](O)[C@H]1O)[C@H]1CC[C@]2(C)[C@@H]1[C@H](O)C[C@@H]1[C@@]3(C)CC[C@H](O[C@@H]4O[C@H](CO)[C@@H](O)[C@H](O)[C@H]4O[C@@H]4O[C@H](CO)[C@@H](O)[C@H](O)[C@H]4O)C(C)(C)[C@@H]3CC[C@]12C [ginsenoside Rb1]
- endothelial nitric oxide synthase-Ser1177 phosphorylation and nitric oxide production [7]: acutely induces

- TNF-a induced changes of adipokines (TNF-a [9]): inhibits
Structure (SMILES): Oc1ccc(C=Cc2cc(O)cc(O)c2)cc1 [resveratrol, Resveratrol]
- onset of endothelial progenitor cells senescence [8]: delayed the onset
- telomerase ([8]; through the PI3K-Akt signalling pathway): activation of telomerase
- pro-inflammatory cytokine expression (IL-23p19, IFN-y, TNF-a, IL-6, MCP-1) [10]: significantly lower
- chronic colonic inflammation [11]: attenuates
- homocysteine formation [12]: suppresses
